Earlier results in patent US10137135B2, “Formulations and methods for providing progestin-only contraception while minimizing adverse side effects associated therewith” (Allergan Sales, LLC, priority 2005, dated 2018).

Tested on: ovulation
Settings: subdermal implants of NEA

## C#C[C@]1(OC(C)=O)CC[C@H]2[C@@H]3CCC4=CC(=O)CC[C@@H]4[C@H]3CC[C@@]21C [NEA, norethindrone acetate]
  NE levels thought to be required to consistently inhibit ovulation: 600 pg/mL
